Results taken from patent publication US20230174485A1, “LIPOXYGENASE INHIBITORS” (SRI International, priority 2020, published 2023).
Values joined by “and” are separate entries in the source; they are usually repeats but may differ in a detail not shown here. Equal entries are not always repeated. Structures can show the parent of a compound that is named as a salt. Where two headings read alike, the source gives them in different places.

Key:
Format in all cases: biochemical
recombinant 5-LOX = target: T1, recombinant 5-LOX (Homo sapiens, UniProt P09917); assay: 5-LOX fluorescent assay; details: several values in one cell = repeat determinations; read-out: IC50 (μM) values for in vitro lipoxygenase inhibition, 5-LOX
T1 sequence (P09917 1-674): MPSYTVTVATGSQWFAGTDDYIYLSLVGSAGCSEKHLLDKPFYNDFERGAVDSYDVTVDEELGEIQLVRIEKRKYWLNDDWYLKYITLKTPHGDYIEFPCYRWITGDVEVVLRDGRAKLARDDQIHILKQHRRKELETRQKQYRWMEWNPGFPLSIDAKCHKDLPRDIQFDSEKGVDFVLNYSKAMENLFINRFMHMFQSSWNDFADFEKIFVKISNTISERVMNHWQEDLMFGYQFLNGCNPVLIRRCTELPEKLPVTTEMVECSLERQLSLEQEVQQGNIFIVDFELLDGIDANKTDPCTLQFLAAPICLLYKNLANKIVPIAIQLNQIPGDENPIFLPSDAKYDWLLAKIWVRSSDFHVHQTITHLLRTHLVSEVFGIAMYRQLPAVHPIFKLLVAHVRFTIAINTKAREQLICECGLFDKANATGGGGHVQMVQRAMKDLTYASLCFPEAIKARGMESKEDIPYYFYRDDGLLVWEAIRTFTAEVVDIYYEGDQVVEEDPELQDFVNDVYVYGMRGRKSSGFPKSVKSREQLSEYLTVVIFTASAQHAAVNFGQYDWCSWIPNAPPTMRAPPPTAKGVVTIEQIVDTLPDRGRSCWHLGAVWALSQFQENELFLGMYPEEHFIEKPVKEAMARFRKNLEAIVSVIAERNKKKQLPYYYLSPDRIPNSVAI
Experimental: 5-LOX FI assay Fluorescent Assay
The enzyme assay (100 μL) contained 50 mM Tris, pH 7.5, 0.1 mM EDTA, 0.3 mM CaCl2, 20 μM AA, 100 μM ATP, 1 μM DHR123, and recombinant 5-LOX cell lysate (0.5 μL/100 μL). Inhibitors (dissolved in DMSO) were plated at 1 μL into 96-well assay microplates followed by a 40 μL addition of a solution containing 5-LOX enzyme. Enzyme was pre-incubated with compounds for 15 mins. The assay was initiated by the addition of a 40 μL substrate solution containing AA and ATP, and 20 μL addition of a solution containing DHR123. Enzymatic reaction proceeded for 30 min with kinetic reading at 500 nm excitation & 536 nm emission in SpectraMax Paradigm (MolecularDevice). Percent inhibition was calculated for each compound dose for IC50 curve fitting using 4 Parameter Logistic Model or Sigmoidal Dose-Response Model.

[1] = target: T2, recombinant 12-LOX enzyme (Homo sapiens, UniProt P18054); assay: 12-LOX fluorescent assay; details: several values in one cell = repeat determinations; read-out: IC50 (μM) values for in vitro lipoxygenase inhibition, 12-LOX
T2 sequence (P18054 1-663): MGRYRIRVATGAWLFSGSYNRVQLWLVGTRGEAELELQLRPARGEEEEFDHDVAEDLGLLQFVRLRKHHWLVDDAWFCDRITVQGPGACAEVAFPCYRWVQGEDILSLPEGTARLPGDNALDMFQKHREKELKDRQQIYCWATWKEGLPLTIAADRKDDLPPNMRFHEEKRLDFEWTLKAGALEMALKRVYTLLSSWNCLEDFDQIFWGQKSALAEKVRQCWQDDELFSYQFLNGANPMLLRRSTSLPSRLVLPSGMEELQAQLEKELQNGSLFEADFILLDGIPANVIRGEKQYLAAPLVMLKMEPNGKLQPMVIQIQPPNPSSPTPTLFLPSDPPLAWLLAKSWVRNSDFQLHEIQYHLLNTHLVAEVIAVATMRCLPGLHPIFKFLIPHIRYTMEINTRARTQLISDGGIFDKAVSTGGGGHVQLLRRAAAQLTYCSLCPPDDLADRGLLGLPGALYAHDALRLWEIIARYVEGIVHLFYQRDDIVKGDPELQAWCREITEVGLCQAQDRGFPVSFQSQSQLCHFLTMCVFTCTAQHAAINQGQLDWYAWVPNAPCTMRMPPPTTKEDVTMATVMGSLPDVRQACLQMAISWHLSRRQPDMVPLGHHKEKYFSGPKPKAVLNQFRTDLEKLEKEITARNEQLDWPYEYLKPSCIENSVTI
Experimental: (§1) 12-LOX/15-LOX Fluorescent Assay
(§2) The enzyme assay (100 ul) contained 50 mM Tris, pH 7.5, 0.05% Tween-20, 20 μM AA/LA, 1 μM DHR123, and 100 nM recombinant 12-LOX enzyme/50 nM recombinant 15-LOX enzyme. Inhibitors (dissolved in DMSO) were plated at 1 μL into 96-well assay microplates followed by a 40 μL addition of a solution containing 12-LOX/15-LOX enzyme. Enzyme was pre-incubated with compounds for 15 mins. The assay was initiated by the addition of a 40 μL substrate solution containing AA/LA, and 20 μL addition of a solution containing DHR123. Enzymatic reaction proceeded for 30 min with kinetic reading at 500 nm excitation & 536 nm emission in SpectraMax Paradigm (MolecularDevice). Percent inhibition was calculated for each compound dose for IC50 curve fitting using 4 Parameter Logistic Model or Sigmoidal Dose-Response Model.

[2] = target: T3, recombinant 15-LOX enzyme (Homo sapiens, UniProt P16050); assay: 15-LOX fluorescent assay; details: several values in one cell = repeat determinations
T3 sequence (P16050 1-662): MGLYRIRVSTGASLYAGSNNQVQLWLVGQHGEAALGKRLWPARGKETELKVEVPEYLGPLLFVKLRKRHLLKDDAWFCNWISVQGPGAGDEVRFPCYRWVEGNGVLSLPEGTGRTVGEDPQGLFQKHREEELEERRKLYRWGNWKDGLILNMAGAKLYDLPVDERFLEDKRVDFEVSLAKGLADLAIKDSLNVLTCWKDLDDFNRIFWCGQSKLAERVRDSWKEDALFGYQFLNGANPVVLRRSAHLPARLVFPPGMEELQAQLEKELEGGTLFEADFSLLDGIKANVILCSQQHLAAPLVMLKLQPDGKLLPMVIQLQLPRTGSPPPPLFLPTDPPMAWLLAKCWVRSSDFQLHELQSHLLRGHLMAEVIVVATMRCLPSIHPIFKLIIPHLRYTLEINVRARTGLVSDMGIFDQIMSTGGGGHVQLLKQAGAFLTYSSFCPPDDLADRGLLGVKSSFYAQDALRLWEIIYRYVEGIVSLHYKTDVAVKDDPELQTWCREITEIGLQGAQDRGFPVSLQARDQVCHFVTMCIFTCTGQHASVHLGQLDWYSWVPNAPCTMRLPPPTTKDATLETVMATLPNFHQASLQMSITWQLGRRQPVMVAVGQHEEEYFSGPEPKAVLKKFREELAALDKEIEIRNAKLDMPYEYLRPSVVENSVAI
Experimental: as §1, §2

[3] = read-out: IC50 (μM) values for in vitro lipoxygenase inhibition, 15-LOX
[4] = IC50 (μM) values for in vitro lipoxygenase inhibition, 15-LOX

Row | SMILES | IC50 (recombinant 5-LOX) | IC50 [1] | IC50 [2, 3] | IC50 [2, 4]
1 | CN(C)CCOc1c2c(cc3[nH]c4ccccc4c13)[nH]c1ccccc12 [SS20308-0063-01, 2-(5,7-dihydroindolo[2,3-b]carbazol-12-yloxy)-N,N-dimethylethanamine] | 0.53 µM and 0.69 µM | 0.46 µM and 0.56 µM |  | 0.29 µM and 0.9 µM
2 | CN(C)CCCc1c(O)ccc2c1[nH]c1ccc(F)cc12 [SS20308-0068-01, 1-(3-(dimethylamino)propyl)-6-fluoro-9H-carbazol-2-ol] | 5.63 µM | 0.77 µM |  | 1.76 µM
3 | CN(C)CCOc1c(N)cc(Cl)c2c1[nH]c1ccc(F)cc12 [SS20308-0069-01, 4-chloro-1-(2-(dimethylamino)ethoxy)-6-fluoro-9H-carbazol-2-amine] | 14.8 µM | 7.93 µM | 8.34 µM | 
4 | CN(C)CCOc1cc2c3ncccc3[nH]c2c2c1[nH]c1cccnc12 [SS20308-0070-01] | 9.17 µM | 6.32 µM | 4.53 µM | 
5 | CN(C)CCOc1c(-c2ccccc2N)ccc2c1[nH]c1ccccc12 [SS20308-0073-01, 2-(1-(2-(dimethylamino)ethoxy)-9H-carbazol-2-yl)aniline dihydrochloride] | 14.4 µM | 49.2 µM |  | 26.1 µM
6 | CN(C)CCOc1c(-c2ccccc2[N+](=O)[O-])ccc2c1[nH]c1ccccc12 [SS20308-0077-01, N,N-dimethyl-2-(2-(2-nitrophenyl)-9H-carbazol-1-yloxy)ethanamine] | 2.66 µM | 2.32 µM | 2.15 µM | 
7 | CN(C)CCOc1c(CNc2ccccc2)ccc2c1[nH]c1ccccc12 [SS20308-0086-01, N-((1-(2-(dimethylamino)ethoxy)-9H-carbazol-2-yl)methyl)aniline] | 0.62 µM | 0.87 µM | 0.42 µM | 
8 | CN(C)CCCOc1cccc2c1-c1[nH]c3ccccc3c1CS2 [SS20308-0090-01, 3-(6,11-dihydrothiochromeno[4,3-b]indol-1-yloxy)-N,N-dimethylpropan-1-amine] | 0.47 µM | 0.43 µM | 0.69 µM | 
9 | CN(C)CCOc1ccc(Cl)c2c1-c1[nH]c3ccc(F)cc3c1CS2 [SS20308-0093-01, 2-(4-chloro-8-fluoro-6,11-dihydrothiochromeno[4,3-b]indol-1-yloxy)-N,N-dimethylethanamine] | 1.46 µM | 1.69 µM | 2.37 µM | 
10 | Cc1c2[nH]c3ccccc3c2c(CCCN(C)C)c2[nH]c3ccccc3c12 [SS20308-0100-01, N,N-dimethyl-3-(12-methyl-5,11-dihydroindolo[3,2-b]carbazol-6-yl)propan-1-amine] | > 100 µM | > 100 µM | > 100 µM | 
11 | CN(C)CCOc1c2[nH]c3ccc(F)cc3c2c(F)c2[nH]c3ccc(F)cc3c12 [SS20308-0101-01, N,N-dimethyl-2-(2,8,12-trifluoro-5,11-dihydroindolo[3,2-b]carbazol-6-yloxy) ethanamine] | 0.07 µM and 0.05 µM and 0.04 µM | 0.08 µM and 0.1 µM and 0.12 µM | 40 nM (2×) and 70 nM | 
12 | COc1ccc2c([nH]c3ccc(F)cc32)c1CCCN(C)C [SS20308-0118-01, 3-(6-fluoro-2-methoxy-9H-carbazol-1-yl)-N,N-dimethylpropan-1-amine] | 23.2 µM | 24.2 µM |  | 26.9 µM

The next lines start with the values.

Row | IC50 (recombinant 5-LOX) | IC50 [1] | IC50 [2, 3] | IC50 [2, 4] | SMILES
13 | 0.53 µM and 0.42 µM | 0.19 µM and 0.24 µM | 0.94 µM and 1.68 µM |  | c1ccc2c(c1)[nH]c1cc3c(ccn3CCn3cncn3)cc12 [SS20308-0062-01, 1-(2-(1H-1,2,4-triazol-1-yl)ethyl)-1,9-dihydropyrrolo[2,3-b]carbazole]
14 | 0.01 µM and 0.04 µM | 0.02 µM and 0.06 µM | 0.03 µM |  | CN(C)CCOc1c2[nH]c3ccccc3c2cc2[nH]c3ccccc3c12 [SS20308-0065-01, 2-(5,11-dihydroindolo[3,2-b]carbazol-6-yloxy)-N,N-dimethylethanamine]
15 | 4.54 µM | 3.59 µM | 5.7 µM |  | CN(C)CCOc1cc2c(cc1-c1ccccc1[N+](=O)[O-])[nH]c1ccccc12 [SS20308-0076-01, N,N-dimethyl-2-(2-(2-nitrophenyl)-9H-carbazol-3-yloxy)ethanamine]
16 | 6.79 µM | 5.42 µM |  | 3.36 µM | Fc1ccc2[nH]c3c(OCCn4cncn4)cc(Oc4ccccc4)cc3c2c1 [SS20308-0084-01, 1-(2-(1H-1,2,4-triazol-1-yl)ethoxy)-6-fluoro-3-phenoxy-9H-carbazole]
17 | 0.57 µM and 1.6 µM | 0.32 µM and 0.92 µM |  | 1.19 µM and 2.23 µM | c1ccc(-c2c(NCCn3cncn3)ccc3c2[nH]c2ccccc23)cc1 [SS20308-0085-01, N-(2-(1H-1,2,4-triazol-1-yl)ethyl)-1-phenyl-9H-carbazol-2-amine]
18 | 0.02 µM | 2.23 µM | 0.06 µM |  | CN(C)CCOc1cc2c3ccccc3[nH]c2c2[nH]c3ccccc3c12 [SS20308-0103-01, 2-(11,12-dihydroindolo[2,3-a]carbazol-5-yloxy)-N,N-dimethylethanamine]
19 | 20.3 µM | 44.9 µM | 0.09 µM |  | c1ccc(-c2cc(NCCCn3cncn3)cc3c2[nH]c2ccccc23)cc1 [SS20308-0111-01, N-(3-(1H-1,2,4-triazol-1-yl)propyl)-1-phenyl-9H-carbazol-3-amine]
20 | > 100 µM | > 100 µM | > 100 µM |  | Cc1c2[nH]c3ccccc3c2cc2[nH]c3ccccc3c12 [SS20308-0112-01, 6-methyl-5,11-dihydroindolo[3,2-b]carbazole]
